Like-named read-outs stand apart in the source and are kept apart here.
Tests used:
[1] = system: rabbit Purkinje fibers; conditions: cited from earlier work
[2] = system: rabbit Purkinje fibers; assay: Action potential duration in rabbit Purkinje fibers; format: cell-based; conditions: n=10
Method: A midline thoracotomy was performed and the heart was excised as practised by those skilled in the art. […] The heart was perfused with standard bicarbonate buffered Krebs' solution known to those skilled in the art. An electrode was pulled from thin-walled filamented borosilicate glass capillary tubes having a resistance of 10 to 30 megaohms when filled with 3 M KCl. The electrode was attached to headstage mounted on an Axoclamp 2A amplifier (or a similar amplifier known to those skilled in the art). The microelectrode was brought down upon an exposed Purkinje fiber using a micromanipulator and the position was adjusted until the electrode penetrated a single Purkinje cell. The Purkinje fiber network was stimulated using a biphasic stimulation pulse and subsequent action potentials were recorded for analysis.

[3] = biological target: human heart sodium channels (hH1) (Homo sapiens, UniProt Q14524); format: cell-based
Chain of human heart sodium channels (hH1) (Q14524 whole entry, looked up): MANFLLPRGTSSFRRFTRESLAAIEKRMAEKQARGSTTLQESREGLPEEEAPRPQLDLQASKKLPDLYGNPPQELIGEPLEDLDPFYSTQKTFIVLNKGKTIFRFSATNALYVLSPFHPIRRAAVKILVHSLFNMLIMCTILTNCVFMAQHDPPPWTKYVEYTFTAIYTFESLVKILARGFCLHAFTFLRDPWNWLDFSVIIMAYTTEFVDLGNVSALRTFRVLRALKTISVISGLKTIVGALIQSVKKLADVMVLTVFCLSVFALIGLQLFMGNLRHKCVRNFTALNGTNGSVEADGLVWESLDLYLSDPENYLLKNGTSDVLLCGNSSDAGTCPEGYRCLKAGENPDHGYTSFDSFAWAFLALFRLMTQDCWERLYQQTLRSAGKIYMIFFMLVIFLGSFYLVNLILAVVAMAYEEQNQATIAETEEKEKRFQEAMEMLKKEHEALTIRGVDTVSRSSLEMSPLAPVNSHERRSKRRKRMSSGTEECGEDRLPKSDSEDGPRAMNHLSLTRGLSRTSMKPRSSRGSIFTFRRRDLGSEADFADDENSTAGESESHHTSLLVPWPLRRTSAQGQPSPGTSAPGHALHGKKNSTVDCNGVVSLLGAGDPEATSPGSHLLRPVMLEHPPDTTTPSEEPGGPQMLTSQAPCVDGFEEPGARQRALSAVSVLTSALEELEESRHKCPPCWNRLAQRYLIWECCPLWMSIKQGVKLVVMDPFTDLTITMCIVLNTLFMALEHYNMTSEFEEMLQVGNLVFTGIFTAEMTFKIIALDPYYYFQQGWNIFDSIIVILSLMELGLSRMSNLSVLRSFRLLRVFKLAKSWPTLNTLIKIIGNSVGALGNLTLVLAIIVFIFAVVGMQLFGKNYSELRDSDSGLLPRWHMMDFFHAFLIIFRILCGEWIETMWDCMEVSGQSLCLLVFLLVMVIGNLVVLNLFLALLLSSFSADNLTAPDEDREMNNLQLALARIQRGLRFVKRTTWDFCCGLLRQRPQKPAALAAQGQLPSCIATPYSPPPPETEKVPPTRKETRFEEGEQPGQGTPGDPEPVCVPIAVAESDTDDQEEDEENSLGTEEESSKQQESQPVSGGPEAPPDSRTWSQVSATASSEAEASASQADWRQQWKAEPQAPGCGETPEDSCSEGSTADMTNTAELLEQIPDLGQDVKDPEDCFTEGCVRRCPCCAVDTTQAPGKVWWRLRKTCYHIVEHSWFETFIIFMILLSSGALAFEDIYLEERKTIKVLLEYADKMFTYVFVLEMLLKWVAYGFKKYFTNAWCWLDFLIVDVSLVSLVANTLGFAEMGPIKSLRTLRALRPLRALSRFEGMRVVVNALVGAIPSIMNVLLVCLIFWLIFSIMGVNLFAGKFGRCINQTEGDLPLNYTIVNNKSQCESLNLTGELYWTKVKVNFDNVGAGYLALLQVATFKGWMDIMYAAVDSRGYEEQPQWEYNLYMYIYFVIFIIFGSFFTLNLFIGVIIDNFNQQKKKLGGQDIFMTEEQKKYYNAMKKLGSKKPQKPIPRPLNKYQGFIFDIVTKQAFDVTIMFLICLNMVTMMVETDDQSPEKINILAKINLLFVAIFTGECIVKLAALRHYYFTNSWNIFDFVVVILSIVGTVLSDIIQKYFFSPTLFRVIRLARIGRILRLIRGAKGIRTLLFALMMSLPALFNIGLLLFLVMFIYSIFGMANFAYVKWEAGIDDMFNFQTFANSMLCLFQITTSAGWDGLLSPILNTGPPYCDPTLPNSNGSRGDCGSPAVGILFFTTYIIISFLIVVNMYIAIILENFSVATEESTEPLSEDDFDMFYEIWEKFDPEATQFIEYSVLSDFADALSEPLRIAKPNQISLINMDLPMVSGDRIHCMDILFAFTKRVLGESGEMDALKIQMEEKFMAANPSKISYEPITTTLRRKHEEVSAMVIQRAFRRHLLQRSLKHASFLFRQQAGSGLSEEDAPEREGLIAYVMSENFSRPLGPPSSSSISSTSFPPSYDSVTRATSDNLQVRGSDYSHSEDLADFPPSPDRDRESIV

[4] = format: in vivo, rabbit
Method: Briefly, continuous infusion of COMPOUND A was administered prior to continuous infusion of methoxamine and followed by clofilium. The incidence of TdP (the number of animals in which TdP occurred) was compared to experiments in which COMPOUND A was not infused.
The following procedure was used: (1) Female NZW rabbits were weighed and anaesthetised initially with 35 mg/kg sodium pentobarbital via ear vein (60 mg/mL) using a sterile 23G 3/4 needle. Additional doses (in increments of 0.2-0.3 mL) were used if required to attain and maintain sufficient anaesthesia as determined by abolishment of eyelid reflex. Care was taken not to over anaesthetize as this could cause respiratory and cardiac arrest. (2) The anaesthetised rabbit was placed on a rabbit restraining board in the supine position and limbs were tied down. (3) The fur in the neck and inguinal region were wetted with water and trimmed down to the skin with scissors to facilitate dissection. Fur was placed in a water-filled beaker to prevent fur from becoming airborne. (4) The left or right femoral artery was cannulated with PE 50 tubing and attached to a pressure transducer to monitor blood pressure. (5) The right and left jugular veins were cannulated using PE-90 tubing for drug delivery via an infusion pump. (6) The left or right femoral vein was cannulated using PE-50 tubing for drug delivery via an infusion pump. (7) ECG leads were attached as follows: the ground lead was inserted subcutaneously into the femoral vein region; one lead was inserted subcutaneously near the apex of the heart and the third lead was placed in the open surgical area near the right jugular vein. (8) Control recordings of ECG and blood pressure were taken for 5 minutes to observe pre-drug effects. Recordings were continued throughout the entire experiment. (9) Arterial K^+ concentration was measured with the hand-held I-STAT blood-gas analyzer prior to infusion of arrhythmogenic agent and at the end of the experiment. […] Infusion was continued throughout the experiment. (11) After a further 5 minutes, methoxamine was administered at 20 μg/kg/min via the femoral vein. Methoxamine infusion was also continued throughout the experiment. (12) 10 minutes following the start of methoxamine infusion, clofilium was infused via a jugular vein. (13) In COMPOUND A-pretreated animals and controls, recording continued for 15 minutes regardless of whether TdP is seen or not. (14) A blood sample was collected when the experimental endpoint was reached, immediately after the infusion pumps were stopped.
COMPOUND A was applied and examined as described. To analyze the data, the parameters measured are (1) incidence of TdP (2) duration of TdP episodes (3) arterial K^+ concentration, (4) PR, QRS and QTc intervals during normal sinus rhythm (until arrhythmias begin and determination is no longer possible), (5) BP, and (6) HR.

[5] = biological target: T1, hH1 sodium channel (Homo sapiens, UniProt Q14524); assay: Inactivated state inhibition of hH1 sodium channel current (prepulse protocol); format: cell-based
T1 construct: expressed in transfected cells; host or cells: HEK293
T1 sequence (Q14524 whole entry): as the sequence (Q14524 whole entry, looked up) above

[6] = system: isolated rabbit Purkinje fibers; conditions: 100 μM
[7] = 300 nM dofetilide in the presence of DMSO
[8] = methoxamine plus clofilium, no pretreatment

CN(CCOc1ccc(NS(C)(=O)=O)cc1)CCc1ccc(NS(C)(=O)=O)cc1 [dofetilide]
increase of APD90 ([1]; 10 nM, BCL=1000 ms): 83%
increase in APD90 [2, 7]: 92%
percentage increase in APD50 [2, 7]: 86%
Vmax ([2]; dofetilide and DMSO): 253±48 V/s

C=C[C@H]1C[N@@]2CC[C@H]1C[C@@H]2[C@@H](O)c1ccnc2ccc(OC)cc12 [quinidine]
increase of APD90 ([1]; 10 μM): 93%

NC1=N[C@H](O)[C@H]2[C@H]3O[C@]4(O)O[C@@H]([C@@H](O)[C@@]2(N1)[C@@H]4O)[C@]3(O)CO [TTX, tetrodotoxin]
block of unsubtracted Iearly [3]: completely

CCCCCCC[N+](CC)(CC)CCCCc1ccc(Cl)cc1 [clofilium]
TdP incidence (animals) ([4]; methoxamine 20 μg/kg/min plus clofilium 300 nmol/kg/min, no pretreatment): 7 of 9
increase in QTc interval 2.5 minutes after starting clofilium ([4]; methoxamine and clofilium without any pretreatment): 20±11%
cumulative dose of clofilium at TdP [4, 8]: 1.4 ± 0.2 mg/kg
time to TdP after starting clofilium infusion [4, 8]: 7.0 ± 1.3 min
time to first PVC after starting clofilium infusion [4, 8]: 3.3 ± 0.5 min

CCN(CC)CC(=O)Nc1c(C)cccc1C [lidocaine]
hH1 inhibition with longer prepulses (inactivated state inhibition) [5]: enhanced inhibition
block of TTX-sensitive early current Iearly(TTX) [3]: 41±2.7%
block of TTX-sensitive late current Ilate(TTX) [3]: 73±2.8%
block of TTX-sensitive sustained current Isus(TTX) [3]: 70±2.5%
termination of EADs induced by 300 nM dofetilide [6]: terminated

From patent publication US20050070552A1, “Ion channel modulating activity I” (Cardiome Pharma Corp., priority 2003, published 2005)
